Where two headings read alike, the source gives them in different places.
System: TGFβ signal
Assay: TGFβ signal inhibitory activity, (SBE)4-Luc reporter in A549 cells (Test Examples 1A and 1B)
Assay type: cell-based, human
Conditions: Homo sapiens, A549, read-out: TGFβ inhibition rate, %
Outline: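 Compounds at 3 µM and 10 µM (some 1 µM) were added with 2 ng/ml TGFβ-1 to A549 cells stably expressing an SBE-driven luciferase, then cultured 4 hr. Chemiluminescent luciferase signal gave % inhibition versus TGFβ-alone and no-TGFβ controls.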

[1] = test compound 3 µM, TGFβ-1 2 ng/ml, 4 hr, Table 1A
[2] = test compound 10 µM, TGFβ-1 2 ng/ml, 4 hr, Table 1A
[3] = 3 µM, compounds of Reference Examples (Test Example 1B)
[4] = 10 µM, compounds of Reference Examples (Test Example 1B)
[5] = test compound 3 µM, Reference Examples, Table 1B
[6] = test compound 10 µM, Reference Examples, Table 1B

| Structure (SMILES) | inhibition at 3 µM [3] [%] | inhibition at 10 µM [4] [%] | further results |
| --- | --- | --- | --- |
| COc1cc2nccc(Oc3ccc(C)nc3-c3nccs3)c2cc1OC [r259] |  |  | inhibition at 1 µM (1 µM, compounds of Reference Examples (Test Example 1B)): 100% |
| Cc1cc(Oc2ccnc3ccc(-c4cc5ccccc5o4)cc23)c(-c2ccccn2)nc1C [Compound 166, 3-(6-Benzofuran-2-yl-quinolin-4-yloxy)-5,6-dimethyl-[2,2']bipyridine] |  |  | inhibition at 3 µM [1]: 78%; inhibition at 10 µM [2]: 100% |
| COc1cc2c(Oc3cc(C)c(C)nc3-c3nc(C)c(C)s3)ccnc2cc1OCCCO [Compound r462] | 99 |  |  |
| COc1ccc2nccc(Oc3cc4cccnc4nc3-c3ccccc3)c2c1 [Compound 55, 3-(6-Methoxy-quinolin-4-yloxy)-2-phenyl-[1,8]naphthyridine] |  |  | inhibition at 3 µM [1]: 94%; inhibition at 10 µM [2]: 100% |
| COc1cc2c(Oc3cc4ccccc4nc3C(C)=O)ccnc2cc1OCC1CO1 (stereo not shown) [Compound r394] | 83 | 100 |  |
| COc1cc2nccc(Oc3ccc4cc(Br)ccc4c3)c2cc1OC [r18] |  |  | inhibition at 3 µM [5]: 15%; inhibition at 10 µM [6]: 69% |
| COc1cc2nccc(Oc3cc4ccccc4nc3C)c2cc1OCC(O)CO (stereo not shown) [r417] | 98 | 100 |  |
| Clc1ccc2nccc(Oc3cc4cccnc4nc3-c3ccccc3)c2c1Cl [Compound 57, 3-(5,6-Dichloro-quinolin-4-yloxy)-2-phenyl-[1,8]naphthyridine] |  |  | inhibition at 3 µM [1]: 75%; inhibition at 10 µM [2]: 100% |
| COc1cc2nccc(Oc3ccc(C)cc3C(=O)c3ccco3)c2cc1OC [Compound r60] |  |  | inhibition at 3 µM [5]: 63%; inhibition at 10 µM [6]: 98% |
| COc1cc2nccc(Oc3ccc(C)nc3C)c2cc1OC [Compound r209] | 99 | 100 |  |
| COc1ccc(Oc2ccnc3cc(OC)c(OC)cc23)c(C(=O)NC2CCCCC2)c1 [Compound r112] |  |  | inhibition at 3 µM [5]: 44%; inhibition at 10 µM [6]: 91% |
| CCOC(=O)c1cc(-n2cccc2)ccc1Oc1ccnc2cc(OC)c(OC)cc12 [Compound r90] |  |  | inhibition at 3 µM [5]: 54%; inhibition at 10 µM [6]: 95% |
| Cc1ccc(Oc2ccnc3ccc(OCCCN4CCN(c5ccccn5)CC4)cc23)c(-c2ncccn2)n1 [Compound 218, 4-(6-Methyl-2-pyrimidin-2-yl-pyridin-3-yloxy)-6-[3-(4-pyridin-2-yl-piperazin-1-yl)-propoxy]-quinoline] |  |  | inhibition at 3 µM [1]: 84%; inhibition at 10 µM [2]: 100% |
| Cc1ccc(-c2nc(C)c(C)cc2Oc2ccnc3cc(C(F)(F)F)ccc23)nc1 [r433] | 91 | 100 |  |
| COc1cc2nccc(Oc3cc4ccccc4nc3OC3CCCC3)c2cc1OC [r280] | 45 | 88 |  |
| COc1cc2c(Oc3cc(C)c(C)nc3-c3cccnc3)ccnc2cc1OCC1CO1 (stereo not shown) [Compound r348] | 76 |  |  |
| COc1cc2nccc(Oc3cc4cccnc4cc3OC)c2cc1OC [Compound r297, 6,7-Dimethoxy-4-(7-methoxy-quinolin-6-yloxy)-quinoline] | 61 | 94 |  |
| COc1cc2nccc(Oc3cc4ccccc4cc3C(=O)Nc3cccc4ccccc34)c2cc1OC [r114] |  |  | inhibition at 3 µM [5]: 0%; inhibition at 10 µM [6]: 96% |
| Cc1cc(Oc2ccnc3cc(OCCO)ccc23)c(-c2ccccn2)nc1C [Compound 143, 2-[4-(5,6-Dimethyl-[2,2']bipyridinyl-3-ylox)-quinolin-7-yloxy]-ethanol] |  |  | inhibition at 3 µM [1]: 100%; inhibition at 10 µM [2]: 100% |
| COc1cc2nccc(Oc3cc4cccnc4nc3-c3ccccc3)c2cc1C(=O)NCc1ccccc1 [Compound 65, 7-Methoxy-4-(2-phenyl-[1,8]naphthyridin-3-yloxy)-quinoline-6-carboxylate benzylamide] |  |  | inhibition at 3 µM [1]: 97%; inhibition at 10 µM [2]: 100% |
| COc1cc2ncnc(Oc3cc(C)c(C)nc3-c3cccc(C)n3)c2cc1OC [Compound 41, 6,7-Dimethoxy-4-(5,6,6'-trimethyl-[2,2']bipyridin-3-yloxy)-quinazoline] |  |  | inhibition at 3 µM [1]: 66%; inhibition at 10 µM [2]: 98% |
| CCOC(=O)c1c(C)cccc1Oc1ccnc2cc(OC)c(OC)cc12 [Compound r92] |  |  | inhibition at 3 µM [5]: 25%; inhibition at 10 µM [6]: 82% |
| COc1cc2nccc(Oc3cc4ccccc4nc3-c3ccncc3)c2cc1OC [r289] | 80 | 99 |  |
| COc1cc2nccc(Oc3cc(C)c(C)nc3-c3nc(C)c(C)s3)c2cc1OC [Compound r260, 4-[2-(4,5-Dimethylthiazol-2-yl)-5,6-dimethyl-pyridin-3-yloxy]-6,7-dimethoxy-quinoline] | 96 | 100 |  |
| COc1cc2c(Oc3cc4ccccc4nc3C)ccnc2cc1OCCCN1CCOCC1 [Compound r379] | 100 | 100 |  |
| Cc1cc(Oc2ccnc3cc(-c4ccncc4)ccc23)c(-c2ccccn2)nc1C [Compound 19, 5,6-Dimethyl-3-(7-pyridin-4-yl-quinolin-4-yloxy)-[2,2']bipyridine] |  |  | inhibition at 3 µM [1]: 100%; inhibition at 10 µM [2]: 100% |

| Structure (SMILES) | inhibition at 3 µM [3] [%] | inhibition at 10 µM [4] [%] | further results |
| --- | --- | --- | --- |
| COc1cc2c(Oc3cc(C)c(C)cc3C(C)=O)ccnc2cc1OCc1ccccc1 [Compound r313] | 56 | 94 |  |
| COc1cc2c(Oc3cc(C)c(C)nc3-c3ccccc3)ccnc2cc1OCCO [Compound r333] | 100 |  |  |
| Brc1ccc2ncnc(Oc3cc4cccnc4nc3-c3ccccc3)c2c1 [Compound 69, 6-Bromo-4-(2-phenyl-[1,8]naphthyridin-3-yloxy)-quinazoline] |  |  | inhibition at 3 µM [1]: 52%; inhibition at 10 µM [2]: 94% |
| COc1cc2c(Oc3cc(C)c(C)nc3-c3nc(C)c(C)s3)ccnc2cc1OCC1CO1 (stereo not shown) [Compound r458] | 94 | 100 |  |
| COc1cc2nccc(Oc3cc(C)c(C)cc3C(C)=NNc3ccccn3)c2cc1OC [Compound r194] | 47 | 94 |  |
| CCc1nc2ncccc2cc1Oc1ccnc2cc(OC)c(OC)cc12 [Compound r423] | 88 | 100 |  |
| COc1ccc(Oc2ccnc3cc(OCCCl)c(OC)cc23)c(C(C)=O)c1 [r119] |  |  | inhibition at 3 µM [5]: 96%; inhibition at 10 µM [6]: 97% |
| COc1cc2c(Oc3cc4ccccc4nc3C)ccnc2cc1OCCCCl [Compound r375] | 84 | 100 |  |
| COc1cc2c(Oc3cc4ccccc4nc3C)ccnc2cc1OCCNC(=N)N [Compound r356] | -2 | 54 |  |
| CCc1ccc(Oc2ccnc3cc(OC)c(OC)cc23)c(-c2ccccn2)n1 [Compound 37, 3-(6,7-Dimethoxy-quinolin-4-yloxy)-6-ethyl-[2,2']bipyridine] |  |  | inhibition at 1 µM (test compound 1 µM, TGFβ-1 2 ng/ml, 4 hr, Table 1A): 98%; inhibition at 3 µM [1]: 100% |
| COc1cc2nccc(Oc3cc4cccnc4nc3-c3cccnc3)c2cc1OC [Compound 88, 3-(6,7-Dimethoxy-quinolin-4-yloxy)-2-pyridin-3-yl-[1,8]naphthyridine] |  |  | inhibition at 3 µM [1]: 90%; inhibition at 10 µM [2]: 100% |
| COc1cc2nccc(Oc3cc4ccncc4cc3Br)c2cc1OC [Compound r301, 4-(7-Bromo-isoquinolin-6-yloxy)-6,7-dimethoxy-quinoline] | 20 | 75 |  |
| COc1cc2nccc(Oc3ccc(C)nc3[N+](=O)[O-])c2cc1OC [r210] | 45 | 80 |  |
| COc1cc2nccc(Oc3ccc(F)cc3C(C)=O)c2cc1OC [r33] |  |  | inhibition at 3 µM [5]: 27%; inhibition at 10 µM [6]: 94% |
| CCCOC(=O)c1cc2ccccc2cc1Oc1ccnc2cc(OC)c(OC)cc12 [r201] | 79 | 100 |  |
| Cc1cc(Oc2ccnc3cc(OCc4ccccc4)ccc23)c(-c2ccccn2)nc1C [Compound 137, 3-(7-Benzyloxy-quinolin-4-yloxy)-5,6-dimethyl-[2,2']bipyridine] |  |  | inhibition at 3 µM [1]: 88%; inhibition at 10 µM [2]: 100% |
| Cc1cc(Oc2ccnc3cc(-c4ccccc4)ccc23)c(-c2ccccn2)nc1C [Compound 17, 5,6-Dimethyl-3-(7-phenyl-quinolin-4-yloxy)-[2,2']bipyridine] |  |  | inhibition at 3 µM [1]: 98%; inhibition at 10 µM [2]: 100% |
| COc1cc2nccc(Oc3cc4c(cc3C(C)=O)CCC4)c2cc1OC [r182] | 57 | 96 |  |
| COc1cc2nccc(Oc3ccc(C)nc3-c3ccc(N(C)C)cc3)c2cc1OC [Compound r247] | 93 | 100 |  |
| COc1cc2nccc(Oc3cc4ccccc4nc3-c3cccnc3)c2cc1OC [Compound r288] | 94 | 100 |  |
| COc1cc2nccc(Oc3cc4ccncc4nc3-c3ccccc3)c2cc1OC [Compound 98, 3-(6,7-Dimethoxy-quinolin-4-yloxy)-2-phenyl-[1,7]naphthyridine] |  |  | inhibition at 3 µM [1]: 94%; inhibition at 10 µM [2]: 100% |
| COc1cc2nccc(Oc3cc(C)c(Cl)cc3C(C)=O)c2cc1OC [Compound r37] |  |  | inhibition at 3 µM [5]: 94%; inhibition at 10 µM [6]: 100% |
| Cc1ccc(Oc2ccnc3ccc(OCCC4CCCCC4)cc23)c(-c2ncccn2)n1 [Compound 216, 6-(2-Cyclohexylethoxy)-4-(6-methyl-2-pyrimidin-2-yl-pyridin-3-yloxy)-quinoline] |  |  | inhibition at 3 µM [1]: 84% |
| COc1cc2nccc(Oc3ccc(C)nc3C(=O)c3cccc(C)n3)c2cc1OC [r221] | 71 | 98 |  |
| COc1cc2c(Oc3cc4cccnc4nc3C)ccnc2cc1OCC(CO)CO [Compound r404] | 29 | 72 |  |

From patent EP1724268A1, “COMPOUND HAVING TGF-BETA INHIBITORY ACTIVITY AND PHARMACEUTICAL COMPOSITION CONTAINING SAME” (KIRIN BEER KABUSHIKI KAISHA, priority 2004, dated 2005)
